Assay results as given in article PMC6715182, “Helicobacter pylori senses bleach (HOCl) as a chemoattractant using a cytosolic chemoreceptor” (PLoS Biology, 2019).

Biological target: T1, DgcZ (Escherichia coli, UniProt P31129)
T1 construct: CZB domain (DgcZ-CZB, strain K12)
Assay: cysteine sulfenic acid formation on purified domain, dimedone trapping and immunoblot
Type: binding

T1 sequence (P31129 2-127): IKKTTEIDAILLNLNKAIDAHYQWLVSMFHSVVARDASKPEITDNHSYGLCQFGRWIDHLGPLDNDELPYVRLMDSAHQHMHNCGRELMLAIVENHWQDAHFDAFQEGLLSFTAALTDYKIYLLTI

In the case of `OCl` [HOCl], the “cysteine sulfenic acid formation on purified domain, dimedone trapping and immun” value was “We found them to be similarly reactive toward HOCl as TlpD”.
